Here are results for three molecules from US20070190004A1, “Substances with a probiotic action used in deodorants” (priority 2004, published 2007).

Experiment [1] deals with Staphylococcus epidermidis. Kind of experiment: Growth of S. epidermidis in LB liquid culture with test substance, OD (600 nm) versus control. The class given is cell-based. The conditions noted are these: for Growth effect, promoting or inhibiting factor compared to the control: S. epidermidis. As for the experimental part: (§1) From liquid precultures of S. epidermidis and S. hominis, cultures in LB medium with an optical density OD (600 nm) of 0.05 were inoculated. In parallel to the controls (without the addition of cells or extract), in each case 2 cultures were treated with 1% plant extract and the growth was documented over 30 h by reference to the OD measurement. After 30 h, the difference in the OD of the cultures with extract additive to the corresponding controls (without extract additive, corrected by the value without cells) was determined.
(§2) From liquid precultures of S. epidermidis and S. hominis, cultures in LB medium with an optical density OD (600 nm) of 0.05 were inoculated. In parallel to the controls (without the addition of cells or extract), in each case 2 cultures were treated with 1% plant extract and the growth was documented over 30 h by reference to the OD measurement. After 30 h, the difference in the OD of the cultures with extract additive to the corresponding controls (without extract additive, corrected by the value without cells) was determined. Various hibiscus extracts from Cosmetochem were used, namely “herbasol extract unpreserved carcade in 80% PG,” “carcade (hibiscus) herbasec” and “carcade (hibiscus) herbasol extract oil-soluble.”
(§3) From liquid precultures of S. epidermidis and S. hominis, cultures in LB medium with an optical density OD (600 nm) of 0.05 were inoculated. In parallel to the controls (without the addition of cells or myristate), in each case 2 cultures were treated with 1% myristate derivative and the growth was documented over 8 h by reference to the OD measurement. After 8 h, the difference in the OD of the cultures with myristate additive to the corresponding controls (without myristate additive, corrected by the value without cells) was determined.
(§4) From liquid precultures of S. epidermidis and S. hominis, cultures in LB medium with an optical density OD (600 nm) of 0.05 were inoculated. In parallel to the controls [without the addition of cells or ethylhexyl glycerol (Sensiva SC 50, Schülke&Mayr)], in each case 2 cultures were treated with 0.1% ethylhexyl glycerol and the growth was documented over 24 h by reference to the OD measurement. After 4 h, 8 h and 24 h, the difference in the OD of the cultures with ethylhexyl glycerol to the corresponding controls (without extract additive, corrected by the value without cells) was determined.

The next experiment has as its system Staphylococcus hominis. Nature of the experiment: Growth of S. hominis in LB liquid culture with test substance, OD (600 nm) versus control. The experiment is classed as cell-based. Conditions: for Growth effect, promoting or inhibiting factor compared to the control: S. hominis. The method, then: as §1, §2, §3, §4
The mark [2] stands for this setting: 1% myristate derivative, after 8 h, LB medium, OD 600 nm.

Regarding `CCCCCCCCCCCCCC(=O)OCC` [Ethyl myristate, ethyl myristate], the “Effect on growth of S. epidermidis (in words)” value in experiment [1] (1% myristate derivative, 8 h) is on record as “moderate promotion of S. epidermidis”. Besides, the “Growth effect, promoting or inhibiting factor compared to the control” value was 1.44 in experiment [1] (setting [2]) and 0.22 with Staphylococcus hominis (setting [2]). Further, in the experiment on Staphylococcus hominis (1% myristate derivative, 8 h), the “Effect on growth of S. hominis (in words)” value is given as “inhibiting action on S. hominis”.
On the same counts, the results for `CCCCCCCCCCCCCC(=O)OC(C)C` [Isopropyl myristate, isopropyl myristate] are “moderate promotion of S. epidermidis”, 1.24, 0.50 and “inhibiting action on S. hominis”.
Consider `CCCCC(CC)COCC(O)CO` (stereo not drawn) [ethylhexyl glycerol, 1-(2-Ethylhexyl) glycerol ether], for which the “Growth effect, promoting or inhibiting factor compared to the control” value is recorded as 1.06 in experiment [1] (0.1% ethylhexyl glycerol, 4 h); 1.06 in experiment [1] (0.1% ethylhexyl glycerol, 8 h); 1.10 in experiment [1] (0.1% ethylhexyl glycerol, 24 h); 0.87 with Staphylococcus hominis (0.1% ethylhexyl glycerol, 4 h); 0.92 with Staphylococcus hominis (0.1% ethylhexyl glycerol, 8 h); 0.76 in the experiment with Staphylococcus hominis (0.1% ethylhexyl glycerol, 24 h). Further, the “Effect on growth of S. hominis (in words)” value with Staphylococcus hominis (0.1% ethylhexyl glycerol, up to 24 h) is on record as “inhibits S. hominis”.
